# Where two headings read alike, the source gives them in different places.
# How the values were obtained:
# [1] = molecular target: T1, [V390I/Y410E/E274V]-CfEcR (Choristoneura fumiferana, UniProt O77240); format: cell-based; conditions: 3T3 Cells; for RMFI (relative maximum fold induction): relative to GS-E ligand
# T1 construct: assay construct b835
# Method: (§1) Cellular gene switch assays were performed by transiently transfecting the following constructs in mouse embryonic fibroblast cells (NIH3T3). The wild-type D, E and F domains from Choristoneura fumiferana EcR or its V390I/Y410E/E274V mutant were fused to GAL4-DBD and placed under the control of the CMV promoter in the pBIND vector (Promega Corporation, Madison, Wis., USA). The DEF domains of EcRs shown were amplified using primers designed based on 20-25 nt sequences at the 5′ and 3′ ends. Restriction enzyme sites EcoR I/BamH I and Xba I were added to 5′ and 3′ primers respectively. The PCR products were digested with appropriate restriction enzymes and cloned into pBIND vector. The EcR LBDs cloned into pBIND vector were verified by sequencing. A chimeric RXR from Homo sapiens RXRP and Locusta migratoria RXR, fused to VP16-AD and placed under the control of an SV40e promoter, was constructed as previously described (Kumar P & Katakam A in Gene Transfer, Friedmann T and Rossi J, eds, pp. 643-651 (2007), Cold Spring Harbor Laboratory Press, Cold Spring Harbor, N.Y.). The inducible luciferase reporter plasmid pFRLuc (Stratagene Cloning Systems, La Jolla, Calif., USA), contains five copies of the GAL4 response element and a synthetic minimal promoter.
# (§2) NIH3T3 cells were maintained at 37′C and 5% CO2 in Dulbecco's modified Eagle's medium (DMEM) supplemented with 10% bovine calf serum, both obtained from Mediatech Inc., Manassas, Va. Cells were planted in a 96-well plate at a density of 2,500 cells/well in 50 μL of growth medium. The following day cells were first treated with 35 μL of serum-free DMEM containing dimethyl sulfoxide (DMSO; control) or a DMSO solution containing ligand. Cells were then transfected with 15 μl of serum-free DMEM containing 0.04 μg of EcR construct, 0.04 ug of RXR construct, and 0.16 μg of luciferase reporter construct per well, using SuperFect™ transfection reagent (Qiagen Inc., Valencia, Calif., USA) according to the manufacturer's instructions. Ligands were tested at 8 doses from 0.01-33 μM and the final DMSO concentration was 0.33% in both control and treatment wells. After a 48 hour post-treatment and transfection incubation, the cells were assayed for luciferase activity using the Bright-Glo™ Luciferase Assay System (Promega Corporation, Madison, Wis., USA) following the manufacturer's instructions. EC50 values were measured minimally in duplicate.
# (§3) Luciferase reporter gene expression was measured 48 h after cell treatment using Bright-Glo™ Luciferase Assay System from Promega (E2650). Luminescence was detected at room temperature using a Dynex MLX microtiter plate luminometer.
# (§4) Each assay was conducted in two separate wells, and the two values were averaged. Fold inductions were calculated by dividing relative light units (“RLU”) in ligand treated cells with RLU in DMSO treated cells. EC50s were calculated from dose response data using a three-parameter logistic model. Relative Max FI was determined as the maximum fold induction of the tested ligand (an embodiment of the invention) observed at any concentration relative to the maximum fold induction of GS™-E ligand (3,5-dimethyl-benzoic acid N-tert-butyl-N′-(2-ethyl-3-methoxy-benzoyl)-hydrazide) observed at any concentration.
# [2] = molecular target: wild-type Choristoneura fumiferana EcR (D, E and F domains) (Choristoneura fumiferana, UniProt O77240); format: cell-based; conditions: WT-CtEcR, 3T3 Cells; for RMFI (relative maximum fold induction): relative to GS-E ligand
# Method: as §1, §2, §3, §4
compound,measurement,setting,value
"CCC[C@@H](N(NC(=O)c1ccc2c(c1C)OCO2)C(=O)c1cc(C)cc(C)c1)C(C)(C)C [Example 20, (R)-3,5-Dimethyl-benzoic acid N-(1-tert-butyl-butyl)-N′-(4-methyl-benzo[1,3]dioxole-5-carbonyl)-hydrazide]",EC50,[1]; R,0.26 nM
same,RMFI (relative maximum fold induction),[1]; R,1.01
same,EC50,[2]; R,7.6 nM
same,RMFI (relative maximum fold induction),[2]; R,1.02
CCCC(N(NC(=O)c1cccc(OC)c1C)C(=O)c1cc(C)cc(C)c1)C(C)(C)C (racemic) [rac-29],EC50,"[1]; rac, read-out: EC50",0.15 nM
same,RMFI (relative maximum fold induction),[1]; rac,0.77
same,EC50,"[2]; rac, read-out: EC50",3.88 nM
same,RMFI (relative maximum fold induction),[2]; rac,0.98
"CCC[C@H](N(NC(=O)c1cc(OC)c(C)c(OC)c1)C(=O)c1cc(C)cc(C)c1)C(C)(C)C [Example 42, (S)-3,5-Dimethyl-benzoic acid N-(1-tert-butyl-butyl)-N′-(3,5-dimethoxy-4-methyl-benzoyl)-hydrazide]",EC50,[1]; S,~7000 nM
same,RMFI (relative maximum fold induction),[1]; S,0.08
same,EC50,[2]; S,> 10000 nM
"CCC[C@@H](N(NC(=O)c1cc(C)oc1C)C(=O)c1cc(C)cc(C)c1)C(C)(C)C [Example 26, (R)-3,5-Dimethyl-benzoic acid N-(1-tert-butyl-butyl)-N′-(2,5-dimethyl-furan-3-carbonyl)-hydrazide]",EC50,[1]; R,99.4 nM
same,RMFI (relative maximum fold induction),[1]; R,0.95
same,EC50,[2]; R,~1000 nM
same,RMFI (relative maximum fold induction),[2]; R,1.16
"CCCC(N(NC(=O)c1c(Cl)cccc1Cl)C(=O)c1cc(C)cc(C)c1)C(C)(C)C (racemic) [rac-16, rac-3,5-dimethyl-benzoic acid N-(1-tert-butyl-butyl)-N′-(2,6-dichloro-benzoyl)-hydrazide]",EC50,[1]; rac,~30 nM
same,RMFI (relative maximum fold induction),[1]; rac,0.73
same,EC50,[2]; rac,~300 nM
same,RMFI (relative maximum fold induction),[2]; rac,0.43
CCC[C@H](N(NC(=O)c1ccccc1)C(=O)c1cc(C)cc(C)c1)C(C)(C)C [Example 32],EC50,[1]; S,267 nM
same,RMFI (relative maximum fold induction),[1]; S,0.38
same,EC50,[2]; S,~3300 nM
same,RMFI (relative maximum fold induction),[2]; S,0.19
"C=CC[C@@H](CCc1ccccc1)N(NC(=O)c1ccc(CC)cc1)C(=O)c1cc(C)cc(C)c1 [Example 62, (R)-3,5-Dimethyl-benzoic Acid N′-(4-ethyl-benzoyl)-N-(1-phenethyl-but-3-enyl)-hydrazide]",EC50,[1]; R,1990 nM
same,RMFI (relative maximum fold induction),[1]; R,0.54
same,EC50,[2]; R,3090 nM
same,RMFI (relative maximum fold induction),[2]; R,0.14
"CCC[C@@H](C1CCCCC1)N(NC(=O)c1ccc(CC)cc1)C(=O)c1cc(C)cc(C)c1 [Example 59, (S)-3,5-Dimethyl-benzoic acid N-(1-cyclohexyl-butyl)-N′-(4-ethyl-benzoyl)-hydrazide]",EC50,[1]; S,~30 nM
same,RMFI (relative maximum fold induction),[1]; S,0.35
same,EC50,[2]; S,~1000 nM
same,RMFI (relative maximum fold induction),[2]; S,0.28
CCCC(N(NC(=O)c1ccccc1F)C(=O)c1cc(C)cc(C)c1)C(C)(C)C (racemic) [rac-5],EC50,"[1]; rac, read-out: EC50",1.1 nM
same,RMFI (relative maximum fold induction),[1]; rac,0.67
same,EC50,"[2]; rac, read-out: EC50",81 nM
same,RMFI (relative maximum fold induction),[2]; rac,0.59
"CCC[C@H](N(NC(=O)c1cccc(C)c1)C(=O)c1cc(C)cc(C)c1)C(C)(C)C [Example 37, (S)-3,5-Dimethyl-benzoic acid N-(1-tert-butyl-butyl)-N′-(3-methyl-benzoyl)-hydrazide]",EC50,[1]; S,292 nM
same,RMFI (relative maximum fold induction),[1]; S,0.47
same,EC50,[2]; S,~3300 nM
same,RMFI (relative maximum fold induction),[2]; S,0.22
"CCC[C@H](N(NC(=O)c1c(F)cccc1F)C(=O)c1cc(C)cc(C)c1)C(C)(C)C [Example 40, (S)-3,5-Dimethyl-benzoic acid N-(1-tert-butyl-butyl)-N′-(2,6-difluoro-benzoyl)-hydrazide]",EC50,[1]; S,~20 nM
same,RMFI (relative maximum fold induction),[1]; S,0.69
same,EC50,[2]; S,~1000 nM
same,RMFI (relative maximum fold induction),[2]; S,0.39
CCCC(N(NC(=O)c1ccc2c(c1C)OCO2)C(=O)c1cc(C)cc(C)c1)C(C)(C)C (racemic) [rac-20],EC50,"[1]; rac, read-out: EC50",12.1 nM
same,RMFI (relative maximum fold induction),[1]; rac,0.92
same,EC50,"[2]; rac, read-out: EC50",99.3 nM
same,RMFI (relative maximum fold induction),[2]; rac,0.90
"Cc1cc(C)cc(C(=O)N(NC(=O)OCc2ccccc2)[C@H](CCCO)C(C)(C)C)c1 [Example 64, (R)—N′-(1-tert-Butyl-4-hydroxy-butyl)-N′-(3,5-dimethyl-benzoyl)-hydrazine carboxylic Acid benzyl ester]",EC50,[1]; R,~8000 nM
same,RMFI (relative maximum fold induction),[1]; R,0.33
same,EC50,[2]; R,> 33000 nM
same,RMFI (relative maximum fold induction),[2]; R,0.02
CCCC(N(NC(=O)c1c(F)cccc1F)C(=O)c1cc(C)cc(C)c1)C(C)(C)C (racemic) [rac-15],EC50,"[1]; rac, read-out: EC50",~1 nM
same,RMFI (relative maximum fold induction),[1]; rac,0.92
same,EC50,"[2]; rac, read-out: EC50",94 nM
same,RMFI (relative maximum fold induction),[2]; rac,0.68
"CCC[C@H](N(NC(=O)c1cc(C)oc1C)C(=O)c1cc(C)cc(C)c1)C(C)(C)C [Example 44, (S)-3,5-Dimethyl-benzoic acid N-(1-tert-butyl-butyl)-N′-(2,5-dimethyl-furan-3-carbonyl)-hydrazide]",EC50,[1]; S,~2000 nM
same,RMFI (relative maximum fold induction),[1]; S,0.49
same,EC50,[2]; S,7060 nM
same,RMFI (relative maximum fold induction),[2]; S,0.32
"CCC[C@H](C1CCCCC1)N(NC(=O)c1ccc(CC)cc1)C(=O)c1cc(C)cc(C)c1 [Example 55, (R)-3,5-Dimethyl-benzoic acid N-(1-cyclohexyl-butyl)-N′-(4-ethyl-benzoyl)-hydrazide]",EC50,[1]; R,~70 nM
same,RMFI (relative maximum fold induction),[1]; R,0.42
same,EC50,[2]; R,~2000 nM
same,RMFI (relative maximum fold induction),[2]; R,0.26
"CCC[C@H](N(NC(=O)c1ccccc1Br)C(=O)c1cc(C)cc(C)c1)C(C)(C)C [Example 36, (S)-3,5-Dimethyl-benzoic acid N′-(2-bromo-benzoyl)-N-(1-tert-butyl-butyl)-hydrazide]",EC50,[1]; S,433 nM
same,RMFI (relative maximum fold induction),[1]; S,0.36
same,EC50,[2]; S,~3300 nM
same,RMFI (relative maximum fold induction),[2]; S,0.11
"CCC[C@H](C1CCCCC1)N(NC(=O)c1cccc(OC)c1CC)C(=O)c1cc(C)cc(C)c1 [Example 52, (R)-3,5-Dimethyl-benzoic Acid N-(1-cyclohexyl-butyl)-N′-(2-ethyl-3-methoxy-benzoyl)-hydrazide]",EC50,[1]; R,~200 nM
same,RMFI (relative maximum fold induction),[1]; R,0.64
same,EC50,[2]; R,220 nM
same,RMFI (relative maximum fold induction),[2]; R,0.38
"CCC[C@H](N(NC(=O)c1ccc(C)cc1)C(=O)c1cc(C)cc(C)c1)C(C)(C)C [Example 38, (S)-3,5-Dimethyl-benzoic acid N-(1-tert-butyl-butyl)-N′-(4-methyl-benzoyl)-hydrazide]",EC50,[1]; S,341 nM
same,RMFI (relative maximum fold induction),[1]; S,0.44
same,EC50,[2]; S,2170 nM
same,RMFI (relative maximum fold induction),[2]; S,0.25
"CCC[C@H](N(NC(=O)c1cccc(OC)c1C)C(=O)c1cc(C)cc(C)c1)C(C)(C)C [Example 47, (S)-3,5-Dimethyl-benzoic acid N-(1-tert-butyl-butyl)-N′-(3-methoxy-2-methyl-benzoyl)-hydrazide]",EC50,[1]; S,56.3 nM
same,RMFI (relative maximum fold induction),[1]; S,0.57
same,EC50,[2]; S,~200 nM
same,RMFI (relative maximum fold induction),[2]; S,0.49
CCC[C@H](N(NC(=O)c1ccc2ccccc2c1)C(=O)c1cc(C)cc(C)c1)C(C)(C)C [Example S-24],EC50,"[2]; S, read-out: EC50",5380 nM
same,RMFI (relative maximum fold induction),[2]; S,0.13
"CCC[C@H](N(NC(=O)c1ccc(Cl)nc1)C(=O)c1cc(C)cc(C)c1)C(C)(C)C [Example 46, (S)-3,5-Dimethyl-benzoic acid N-(1-tert-butyl-butyl)-N′-(6-chloro-pyridine-3-carbonyl)-hydrazide]",EC50,[1]; S,3990 nM
same,RMFI (relative maximum fold induction),[1]; S,0.42
